Reference: patent US4778824A, “Method for suppressing a transplantation immunity and treating an allergic disease and an autoimmune disease” (Zaidan Hojin Biseibutsu Kagaku Kenkyu Kai, priority 1984, dated 1988)
Counter-ions that a name gives are not always drawn.

Experiments:
[1] = tested on: experimental aplastic anemia; assay: Effect on experimental aplastic anemia in mice; format: in vivo, C3H/HeN mice; conditions: 10 days; for MST (mean survival time): ± S.D.
Text: Female C3H/HeN mice (Mls^c) of 10 week-old and female CBA mice (Mls^d) of 10 week-old were used. A group consisted of 10 mice. CBA lymph node cells (10^7) were i.v. into C3H/HeN mice after being subjected to 600 rads of whole-body X-irradiation, spergualin was given i.p. once a day for 10 days. The data is indicated as the mean survival time ±S.D.

Allokiller T-lymphocyte = assay: Inhibition of allokiller T-lymphocyte genesis (51Cr release from P815 mastocytoma); format: in vivo, C 57 BL/b mice
Description: 3×10^7 P815 mastocytoma cells were administered intraperitoneally to C 57 BL/b mice (10 wk old). Twelve days later, spleen cels were isolated and used as effector cells (E). Target cells (T) which were ^51 Cr labelled P815 mastocytoma cells were challenged by the effector cells at varying E/T ratios and the allokiller activity was assayed in terms of the percentage release ^51 Cr. Spergualin was administered for nine consecutive days starting on the day following the transplantation or a single administration was made on the 9th day.

T-lymphocyte = assay: Inhibition of Con A-induced reaction of T-lymphocyte blastogenesis (3H-thymidine uptake, BALB/c spleen cells); format: cell-based, BALB/c mice; conditions: Con A 5 μg/ml, 72 h; for ^3 H--thymidine uptake: ± S.D.
Description: The present inventors conducted tests to evaluate the actions of spergualin against the reaction of lymphocyte blastogenesis in accordance with the method of Waithe et al. (Waithe et al., Handbook of Experimental Immunology, page 26.1, 1978).
Spleen cells from BALB/c mice were distritubed among wells in a microplate so that each well contained 2×10^5 cells/0.2 ml. The compound was added to all wells but one, the latter being used as a control. Con A (5 μg/ml) was added to all the wells and the so prepared cell suspensions were cultivated in a 5% CO2 incubator for 72 hours at 37° C. Eight hours before the completion of the incubation, 1 μCi of ^3 H-thymidine was added to each well and the uptake of the thymidine by the cultured cells was measured with a liquid scintillation counter to estimate the progress of the reaction of T-lymphocyte blastogenesis. The percentage inhibition of the blastogenesis by the test compound was calculated by: […] wherein Adpm indicates the uptake count for the addition of only Con A and Bdpm, the count for the addition of both Con A and the test compound.

[2] = tested on: graft-versus-host disease; assay: Delay of graft-versus-host disease in irradiated CBA mice transplanted with C57BL/6 bone marrow cells and spleen cells; format: in vivo; conditions: Donor C57BL/6, 10 days
Description: Female CBA mice of 9 week-old and female C57BL/6 mice of 9 week-old were used. A group consisted of 10 mice. Bone marrow cells (10^7) and spleen cells (5×10^6) from CBA mice and C57BL/6 mice were injected i.v. into the whole body irradiation (850 rad) CBA mice. Spergualin was administered i.p. once a day for 10 days starting on one day after the injection of bone marrow cells and spleen cells. The data is indicated as the median survival time.

IgE antibody production = assay: Inhibition of IgE antibody production against egg albumin (passive cutaneous anaphylaxis titer); format: in vivo, BALB/c mice; conditions: 50 mg/kg/day i.p., ± S.D.
Description: BALB/c mice (7 wk old, female) were challenged by intraperitoneal administration of 10 μg of egg albumin together with 4 mg of aluminum hydroxide gel. Thereafter, the mice were intraperitoneally administered 50 mg/kg/day of the test compound in accordance with the schedules shown in Table 5. After the challenge, blood was drawn from the fundus of each mouse at 10-day intervals for serum collection. The antibody titer of IgE in the serum was determined by passive cutaneous anaphylaxis as follows. Fischer 344 rats (female, 10 wk old) were injected with 0.05 ml of a diluted serum into the dorsal skin. Four hours later, 1 mg of egg albumin and 0.5 ml of 1% Evans blue were injected into the tail vein, and the final serum dilution that produced a blue spot of a diameter of at least 5 mm 30 minutes after the intravenous injection was used as a measure of the antibody titer.

[3] = Exp. 1, 3.13 mg/kg i.p. once a day
[4] = Exp. 2, 6.25 mg/kg i.p. once a day
[5] = Exp. 2, 25.0 mg/kg i.p. once a day
[6] = Exp. 2, 50.0 mg/kg i.p. once a day

`N=C(N)NCCCCC(O)CC(=O)NC(O)C(=O)NCCCCNCCCN` (stereo not shown) [spergualin (trihydrochloride)] was tested, and the “30-day survivors, Survivors/Total” value [1, 3] was 2/10, the “MST (mean survival time)” value [1, 3] was 16.3 ± 8.1 days and the “30-day survivors, Survivors/Total” value ([1]; Exp. 1, 6.25 mg/kg i.p. once a day) was 6/10. For the same molecule, the “MST (mean survival time)” value ([1]; Exp. 1, 6.25 mg/kg i.p. once a day, P < 0.05) was 22.6 ± 9.7 days, the “30-day survivors, Survivors/Total” value ([1]; Exp. 1, 12.5 mg/kg i.p. once a day) was 10/10 and the “MST (mean survival time)” value ([1]; Exp. 1, 12.5 mg/kg i.p. once a day, P < 0.01) was 30.0 ± 0.0 days. For the same molecule, the “30-day survivors, Survivors/Total” value ([1]; Exp. 1, 25.0 mg/kg i.p. once a day) was 6/10, the “MST (mean survival time)” value ([1]; Exp. 1, 25.0 mg/kg i.p. once a day, P < 0.05) was 23.6 ± 8.6 days and the “30-day survivors, Survivors/Total” value [1, 4] was 3/10. For the same molecule, the “MST (mean survival time)” value [1, 4] was 20.2 ± 8.4 days, the “30-day survivors, Survivors/Total” value ([1]; Exp. 2, 12.5 mg/kg i.p. once a day) was 6/10 and the “MST (mean survival time)” value ([1]; Exp. 2, 12.5 mg/kg i.p. once a day, P < 0.05) was 23.0 ± 9.4 days. For the same molecule, the “30-day survivors, Survivors/Total” value [1, 5] was 4/10, the “MST (mean survival time)” value [1, 5] was 20.7 ± 8.5 days and the “30-day survivors, Survivors/Total” value [1, 6] was 0/10. For the same molecule, the “MST (mean survival time)” value [1, 6] was 12.6 ± 3.9 days, the “Percent release of ^51 Cr” value (Allokiller T-lymphocyte; 5 mg/kg/day, days 1-9 after transplantation, E/T ratio 5) was 6% and the “Percent release of ^51 Cr” value (Allokiller T-lymphocyte; 5 mg/kg/day, days 1-9 after transplantation, E/T ratio 10) was 8%. The “Percent release of ^51 Cr” value (Allokiller T-lymphocyte; 5 mg/kg/day, days 1-9 after transplantation, E/T ratio 20) was 17%, the “Percent release of ^51 Cr” value (Allokiller T-lymphocyte; 50 mg/kg, single administration day 9, E/T ratio 5) was 21% and the “Percent release of ^51 Cr” value (Allokiller T-lymphocyte; 50 mg/kg, single administration day 9, E/T ratio 10) was 30%. The “Percent release of ^51 Cr” value (Allokiller T-lymphocyte; 50 mg/kg, single administration day 9, E/T ratio 20) was 51%, the “Percent release of ^51 Cr” value (Allokiller T-lymphocyte; 50 mg/kg/day, days 1-9 after transplantation, E/T ratio 5) was 0% and the “Percent release of ^51 Cr” value (Allokiller T-lymphocyte; 50 mg/kg/day, days 1-9 after transplantation, E/T ratio 10) was 0%. For the same molecule, the “Percent release of ^51 Cr” value (Allokiller T-lymphocyte; 50 mg/kg/day, days 1-9 after transplantation, E/T ratio 20) was 1%, the “^3 H--thymidine uptake” value (T-lymphocyte; 10 μg/ml) was 30,214 ± 25,033 dpm and the “^3 H--thymidine uptake” value (T-lymphocyte; 100 μg/ml) was 788 ± 182 dpm. The inhibition at 10 µg/mL (T-lymphocyte; Mus musculus, T-lymphocyte, 10 μg/ml) was 76.7%, the inhibition at 100 µg/mL (T-lymphocyte; Mus musculus, T-lymphocyte, 100 μg/ml) was 99.4% and the “80-day survivors, Survivors/Total” value ([2]; 3.13 mg/kg i.p. once a day) was 2/10. The “MST (median survival time)” value ([2]; 3.13 mg/kg i.p. once a day) was 33.0 days, the “80-day survivors, Survivors/Total” value ([2]; 6.25 mg/kg i.p. once a day) was 3/10 and the “MST (median survival time)” value ([2]; 6.25 mg/kg i.p. once a day, P < 0.05) was 45.3 days. For the same molecule, the “80-day survivors, Survivors/Total” value ([2]; 12.5 mg/kg i.p. once a day) was 4/10, the “MST (median survival time)” value ([2]; 12.5 mg/kg i.p. once a day, P < 0.01) was 55.0 days and the “80-day survivors, Survivors/Total” value ([2]; 25.0 mg/kg i.p. once a day) was 9/10. For the same molecule, the “MST (median survival time)” value ([2]; 25.0 mg/kg i.p. once a day, P < 0.01) was over 80.0 days, the “IgE antibody titer, 10 days” value (IgE antibody production; days 1-8 after challenge) was 13±33 dilutions and the “IgE antibody titer, 20 days” value (IgE antibody production; days 1-8 after challenge) was 60±31 dilutions. The “IgE antibody titer, 30 days” value (IgE antibody production; days 1-8 after challenge) was 320±0 dilutions, the “IgE antibody titer, 40 days” value (IgE antibody production; days 1-8 after challenge) was 320±0 dilutions and the “IgE antibody titer, 10 days” value (IgE antibody production; days 1-16 after challenge) was 0±0 dilutions. The “IgE antibody titer, 20 days” value (IgE antibody production; days 1-16 after challenge) was 8±9 dilutions, the “IgE antibody titer, 30 days” value (IgE antibody production; days 1-16 after challenge) was 80±120 dilutions and the “IgE antibody titer, 40 days” value (IgE antibody production; days 1-16 after challenge) was 200±131 dilutions. The “IgE antibody titer, 10 days” value (IgE antibody production; days 9-16 after challenge) was 120±98 dilutions, the “IgE antibody titer, 20 days” value (IgE antibody production; days 9-16 after challenge) was 110±106 dilutions and the “IgE antibody titer, 30 days” value (IgE antibody production; days 9-16 after challenge) was 320±0 dilutions. For the same molecule, the “IgE antibody titer, 40 days” value (IgE antibody production; days 9-16 after challenge) was 480±392 dilutions.
